Laboratory results reported in ChEMBL document CHEMBL3885861, “Open TG-GATES”.

Species on record: Rattus norvegicus
Experiment: Open TG-GATES - Regimen: Daily Repeat
Assay type: toxicity, organism-based, Sprague-Dawley
Parameters: regimen Daily Repeat, gender Male, age 6 weeks
Details: in vivo, po, 100 mg/kg, route gavage, dose level High; for APTT / Bas / Eos / Fbg / Hb / Ht / Lym / MCH / MCHC / MCV / Mono / Neu / PT / Plat / RBC / Ret / WBC: tissue Blood; for KIDNEY_L / KIDNEY_R / KIDNEY_TOTAL: tissue Kidney; for LIVER: tissue Liver; for A/G / ALP / ALT / AST / BUN / CRE / Ca / Cl / DBIL / GLC / IP / K / LDH / Na / PL / RALB / TBIL / TC / TG / TP / gamma-GTP: tissue Plasma

## CN(C)CCN(Cc1cccs1)c1ccccn1
72 h, time 3 day
  TERMINAL_BW: 205.4 g
  APTT: 20.1 s
  Bas: 0%
  Eos: 1%
  Fbg: 285.6 mg/dL
  Hb: 13 g/dL
  Ht: 38.7%
  Lym: 75.2%
  MCH: 20.8 pg
  MCHC: 33.7%
  MCV: 61.8 fL
  Mono: 2.2%
  Neu: 20.8%
  PT: 15.9 s
  Plat: 132.3 x10_4/uL
  RBC: 626.8 x10_4/ul
  Ret: 4.7%
  WBC: 84.8 x10_2/uL
  KIDNEY_L: 0.9 g
  KIDNEY_R: 1 g
  KIDNEY_TOTAL: 1.9 g
  LIVER: 10.6 g
  A/G: 1.2
  ALP: 1934 IU/L
  ALT: 61.2 IU/L
  AST: 106.4 IU/L
  BUN: 16.6 mg/dL
  CRE: 0.2 mg/dL
  Ca: 10.9 mg/dL
  Cl: 107 meq/L
  DBIL: 0.01 mg/dL
  GLC: 160.2 mg/dL
  IP: 7.6 mg/dL
  K: 4.4 meq/L
  LDH: 202.2 IU/L
  Na: 142.2 meq/L
  PL: 161.2 mg/dL
  RALB: 2.8 g/dL
  TBIL: 0.028 mg/dL
  TC: 91.8 mg/dL
  TG: 49 mg/dL
  TP: 5.2 g/dL
  gamma-GTP: 2 IU/L
[…], time 7 day
  TERMINAL_BW: 222.8 g
  APTT: 18.6 s
  Bas: 0%
  Eos: 0.6%
  Fbg: 247 mg/dL
  Hb: 14.2 g/dL
  Ht: 42.3%
  Lym: 80.4%
  MCH: 20.5 pg
  MCHC: 33.5%
  MCV: 61.2 fL
  Mono: 2.4%
  Neu: 15.4%
  PT: 15.9 s
  Plat: 123.2 x10_4/uL
  RBC: 691.6 x10_4/ul
  Ret: 3.7%
  WBC: 124.5 x10_2/uL
  KIDNEY_L: 1 g
  KIDNEY_R: 1 g
  KIDNEY_TOTAL: 2 g
  LIVER: 11.6 g
  A/G: 1.1
  ALP: 2330.2 IU/L
  ALT: 145.2 IU/L
  AST: 324.2 IU/L
  BUN: 19 mg/dL
  CRE: 0.2 mg/dL
  Ca: 10.4 mg/dL
  Cl: 107.6 meq/L
  DBIL: 0.094 mg/dL
  GLC: 152.2 mg/dL
  IP: 8.7 mg/dL
  K: 4.6 meq/L
  LDH: 230.6 IU/L
  Na: 144 meq/L
  PL: 179 mg/dL
  RALB: 2.7 g/dL
  TBIL: 0.1 mg/dL
  TC: 100 mg/dL
  TG: 30.2 mg/dL
  TP: 5.2 g/dL
  gamma-GTP: 7 IU/L
[…], time 14 day
  TERMINAL_BW: 237.7 g
  APTT: 21.1 s
  Bas: 0%
  Eos: 0.2%
  Fbg: 177.8 mg/dL
  Hb: 15.1 g/dL
  Ht: 44.1%
  Lym: 74%
  MCH: 19.5 pg
  MCHC: 34.3%
  MCV: 56.9 fL
  Mono: 3.2%
  Neu: 21.4%
  PT: 18.3 s
  Plat: 117.4 x10_4/uL
  RBC: 775 x10_4/ul
  Ret: 2.4%
  WBC: 140.8 x10_2/uL
  KIDNEY_L: 1.1 g
  KIDNEY_R: 1.1 g
  KIDNEY_TOTAL: 2.1 g
  LIVER: 10.6 g
  A/G: 1.1
  ALP: 2530.2 IU/L
  ALT: 69 IU/L
  AST: 237.2 IU/L
  BUN: 16.6 mg/dL
  CRE: 0.2 mg/dL
  Ca: 9.7 mg/dL
  Cl: 106.8 meq/L
  DBIL: 0.3 mg/dL
  GLC: 135.6 mg/dL
  IP: 8.2 mg/dL
  K: 4.1 meq/L
  LDH: 250.8 IU/L
  Na: 141.8 meq/L
  PL: 126.4 mg/dL
  RALB: 2.5 g/dL
  TBIL: 0.3 mg/dL
  TC: 57.4 mg/dL
  TG: 22 mg/dL
  TP: 4.8 g/dL
  gamma-GTP: 6.6 IU/L
[…], time 28 day
  TERMINAL_BW: 237.4 g
  APTT: 24.5 s
  Bas: 0%
  Eos: 0.5%
  Fbg: 140.8 mg/dL
  Hb: 16.7 g/dL
  Ht: 48.9%
  Lym: 53.8%
  MCH: 18.1 pg
  MCHC: 34.1%
  MCV: 53 fL
  Mono: 5%
  Neu: 39.8%
  PT: 20.1 s
  Plat: 79.2 x10_4/uL
  RBC: 924.8 x10_4/ul
  Ret: 2.1%
  WBC: 178.3 x10_2/uL
  KIDNEY_L: 1.1 g
  KIDNEY_R: 1.1 g
  KIDNEY_TOTAL: 2.2 g
  LIVER: 9.7 g
  A/G: 1
  ALP: 1953.8 IU/L
  ALT: 94 IU/L
  AST: 418 IU/L
  BUN: 13.5 mg/dL
  CRE: 0.2 mg/dL
  Ca: 9.1 mg/dL
  Cl: 107.8 meq/L
  DBIL: 1 mg/dL
  GLC: 116.5 mg/dL
  IP: 7.6 mg/dL
  K: 3.9 meq/L
  LDH: 377.5 IU/L
  Na: 140.5 meq/L
  PL: 96.5 mg/dL
  RALB: 2 g/dL
  TBIL: 1 mg/dL
  TC: 38 mg/dL
  TG: 29.8 mg/dL
  TP: 4 g/dL
  gamma-GTP: 15.2 IU/L
